According to patent US20130338129A1, “METHOD OF TREATING REFRACTORY CANCER” (Niiki Pharma Inc., priority 2010, published 2013):
pIC50: −log10 of the molar value. Where two headings read alike, the source gives them in different places.

Legend:
[1] = system: Non-Small Cell Lung Cancer; assay: Human clinical trial (US), refractory lung cancer patients; format: in vivo; settings: 320 mg/m^2 i.v. day 1, 8, 15 of 28-day cycle, 4 cycles
Procedure: Patient No. 04-005 was a person with Stage IV Non-Small Cell Lung Cancer, moderately differentiated adenocarcinoma histology, diagnosed in April 2006. […] Combination chemotherapy with docetaxel, carboplatin and bevacizumab was administered between September and December 2006, with which the patient achieved a complete response. The patient suffered a disease recurrence and was started on sorafenib in April 2008. Sorafenib was discontinued in May 2008 due to disease progression. […] Between November 2009 and January 2010, the patient received gemcitibine.
Patient No. 04-011 was a person with Stage IIIB Non-Small Cell Lung Cancer, poorly differentiated adenocarcinoma histology, diagnosed in January 2005. Initial therapy consisted of carboplatin, gemcitibine and zoledronic acid from January 2005 through August 2005, with a partial response. […] In December 2005, chest radiotherapy with 54 Gy, with paclitaxel radiosensitization, was initiated and completed by February 2006. Through the remainder of 2006, the patient received a course of single agent erlotinib and a course of single agent pemetrexed; best response to these therapies is unknown. In January 2007, combination therapy with gemcitibine and navelbine was initiated, but their best response was disease progression. Experimental therapy with PTK787 (vatalanib) and imatinib was initiated in February 2007. […]

[2] = system: Human lung carcinoma cell line A549; assay: MTT Cell Proliferation Assay, A549 cells; format: cell-based; settings: for pIC50: A549 cells, MTT, 72 hours post-treatment; for IC50 Ratio (A549/H1975): ratio of IC50 in A549 to IC50 in H1975
Procedure: (§1) Human lung carcinoma cell line A549 plates were seeded with 2,500 cells/well, and the cells were grown in Ham's F12 medium containing 10% FBS and 1% penicillin/strep/glutamine. Cultures were maintained in a 37° C. humidified 5% CO2/95% air atmosphere. Stock cultures were allowed to grow to 70-80% confluence for this study. […] 1000 μl of medium was removed from each well at 72 hours post-treatment and 10 μl MTT reagent was added to each well. The plates were incubated at 37° C. for 4 hours and then 100 μl of detergent was added. The plates were left overnight at room temperature in the dark and was read on a plate reader using SoftMax® Pro (version 5.2, Molecular Devices).
The absorbance data was analyzed as follows: Absorbance values were converted to Percent of Control and plotted against test agent concentrations for IC50 calculations using SoftMax® Pro (version 5.2, Molecular Devices). The plate blank signal average was subtracted from all wells prior to calculating the Percent of Control. Percent of Control values were calculated by dividing the absorbance values for each test well by the No Drug Control average (column 11 values; cells+vehicle control) and multiplying by 100. Plots of Compound Concentration versus Percent of Control were analyzed using the 4-parameter equation to obtain IC50 values and other parameters that describe the sigmoidal dose response curve.
The IC50 values for the test agents were estimated by curve-fitting the data using the following four parameter-logistic equation:
wherein “Top” is the maximal % of control absorbance (100%), “Bottom” is the minimal % of control absorbance at the highest agent concentration (down to zero), Y is the Percent of Control absorbance, X is the test agent Concentration, IC50 is the concentration of agent that inhibits cell growth by 50% compared to the control cells, n is the slope of the curve.

[3] = system: colorectal adenocarcinoma; assay: Human clinical trial (UK), refractory colorectal cancer patient; format: in vivo; settings: person, colorectal adenocarcinoma failed oxaliplatin, capecitibine, cetuximab, irinotecan, panitumumab; 500 mg/m^2 i.v. daily days 1-4 of 21-day cycle, 4 cycles
Source text: The trial enrolled a person with colorectal adenocarcinoma, adenocystic histology, incompletely resected in September 2007. Their initial therapy consisted of oxaliplatin, capecitibine and cetuximab between October 2007 and February 2009 with best response of progressive disease. […] They then were changed to irinotecan and panitumumab, administered between April 2009 and October 2009, again with best response progressive disease.

[4] = system: human lung carcinoma cell line H1975; assay: MTT Cell Proliferation Assay, H1975 cells; format: cell-based
Procedure: (“Test Drug”) was 41 μM (FIG. 1).
Table 2 below summarizes the activities on the two compounds in the different lung cancer cell lines tested.

[5] = system: Human malignant melanoma cell line G361; assay: MTT Cell Proliferation Assay, G361 cells; settings: read-out: IC50 (concentration of agent that inhibits cell growth by 50%)
Procedure: as §1
The absorbance data was analyzed as follows: Absorbance values were converted to Percent of Control and plotted against test agent concentrations for IC50 calculations using SoftMax® Pro (version 5.2, Molecular Devices). The plate blank signal average was subtracted from all wells prior to calculating the Percent of Control. Percent of Control values were calculated by dividing the absorbance values for each test well by the No Drug Control average (column 11 values; cells+vehicle control) and multiplying by 100. Plots of Compound Concentration versus Percent of Control were analyzed using the 4-parameter equation to obtain IC50 values and other parameters that describe the sigmoidal dose response curve. […]

[6] = system: human lung carcinoma cell line H1975; settings: T790M mutation in the EGFR gene; Bao et al. 2009; cited from earlier work
[7] = system: A549 cells; settings: Denlinger et al. 2004; cited from earlier work

For `[Cl][Ru-]([Cl])([Cl])[Cl].[Na+].c1ccc2[nH]ncc2c1.c1ccc2[nH]ncc2c1`, the best response ([1]; Patient No. 04-005, Stage IV NSCLC) was “stable disease”, the best response ([1]; Patient No. 04-011, Stage IIIB NSCLC) was “stable disease” and the pIC50 [2] was 5.00. The “IC50 Ratio (A549/H1975)” value [2] was 0.29, the best response [3] was “stable disease” and the pIC50 ([4]; 72 hours post-treatment) was 4.47. It also gave a pIC50 ([5]; G361 melanoma cells, MTT, 72 hours post-treatment) of 4.39.
With `CC(=O)O[C@H]1C(=O)[C@@]2(C)[C@H]([C@H](OC(=O)c3ccccc3)[C@]3(O)C[C@H](OC(=O)[C@H](O)[C@@H](NC(=O)c4ccccc4)c4ccccc4)C(C)=C1C3(C)C)[C@]1(OC(C)=O)CO[C@@H]1C[C@@H]2O` [Paclitaxel, paclitaxel] the pIC50 ([2]; Homo sapiens) was 5.00, the “IC50 Ratio (A549/H1975)” value [2] was 1984 and the pIC50 ([4]; Homo sapiens, NCI-H1975, 72 hours post-treatment) was 8.30.
For `C#Cc1cccc(Nc2ncnc3cc(OCCOC)c(OCCOC)cc23)c1` [erlotinib], the “sensitivity of H1975 cells” value [6] is given as “resistant”.
In the case of `COc1cc2ncnc(Nc3ccc(F)c(Cl)c3)c2cc1OCCCN1CCOCC1` [gefitinib], the “sensitivity of H1975 cells” value [6] is listed as “resistant”.
In the case of `Nc1ccn([C@@H]2O[C@H](CO)[C@@H](O)C2(F)F)c(=O)n1` [gemcitabine], the “sensitivity of A549 cells” value [7] is given as “inherently resistant”.
`Cn1nnc2c(C(N)=O)ncn2c1=O` [temozolomide] showed a pIC50 ([5]; Homo sapiens, G-361, 72 h) of 3.70.
